# Like-named read-outs stand apart in the source and are kept apart here.
# How the values were obtained:
# [1] = test system: PrP^Sc in nondividing ScN2a-c13 cells; assay type: cell-based, mouse
# [2] = test system: PrP^Sc in dividing ScN2a-cl3 cells; assay type: cell-based, mouse
# [3] = Fraction unbound in cell-culture media; assay type: in vitro ADME; conditions: 1 μM; mean ± SD, n = 3
# [4] = test system: prion-infected mice; conditions: literature reports; cited from earlier work
# [5] = Binding in mouse plasma; conditions: 1 μM; mean ± SD, n = 3 (warfarin n = 2)
# [6] = Binding in human plasma; conditions: 1 μM; mean ± SD, n = 3 (warfarin n = 2)
# [7] = Toleration studies in mice
# [8] = Hepatic microsomal stability, rat
# [9] = Hepatic microsomal stability, mouse; conditions: for half-life at 1 μM: CD-1, mouse, pH 7.4
# [10] = Hepatic microsomal stability, human; conditions: for half-life at 1 μM: human, pH 7.4
# [11] = Tolerability / toxicity on repeated dosing in mice
# [12] = Single-dose pharmacokinetics in FVB mice (oral gavage, IV); conditions: female, FVB, mouse, po, 10 mg/kg
# [13] = Multidose (three-day) pharmacokinetics in liquid diet in FVB mice; conditions: FVB, mouse, in vivo, 100 mg/kg/day, Brain concentrations, 3 days, FVB mice
# [14] = Media solubility; assay type: physicochemical; conditions: cell media
# Method: To evaluate media solubility, two protocols were followed. In the first, solutions were prepared as described above. After overnight equilibration, samples were centrifuged for 30 min, without filtration, and supernatant analyzed by HPLC/UV/VIS with reference to three standards (5, 100, 250 μM). In the second protocol, turbidimetric analysis, dilutions of the compound of interest were prepared in media with target concentrations of 5, 10, 20, 50, 100, 200 and 300 μM. Media without solute was included for background. These solutions were evaluated using a light scattering technique and a Nepheloskan instrument.
# [15] = physchem
# [16] = test system: PrP^C in IMR32 cells; assay type: cell-based, human
# [17] = test system: PrP^C in T98G cells; assay type: cell-based, human
# [18] = test system: PrP^Sc in dividing ScN2a-c13 cells
# [19] = test system: PrP^C in T98G cells; assay type: cell-based, human; remark: listed apart in the source
# [20] = test system: PrP^C in IMR32 cells; assay type: cell-based, human; remark: listed apart in the source
# [21] = test system: T98G cells; test: cells; assay type: cell-based, human; conditions: calcein, T98G cells
# [22] = test system: IMR32 cells; assay type: cell-based, human
# [23] = test system: PrP^Sc in dividing ScN2a-cl3 cells; conditions: previously demonstrated; cited from earlier work
# [24] = test system: PrP^Sc in nondividing ScN2a-cl3 cells; conditions: previously demonstrated; cited from earlier work
smiles,measurement,setting,value
"C(=N\Nc1ccc(-c2cnco2)cc1)/c1ccncc1 [Compound B, (E)-5-(4-(2-(pyridin-4-ylmethylene)hydrazinyl)phenyl)oxazole, reference compound]",activity on PrP^Sc in nondividing cells (in words),[1],inactive
same,EC50,"[2]; Table 29, 2-AMT analogs tested for potency, usually n = 3 or more",246 nM
same,EC50,"[2]; read-out: EC50, PrP^Sc ELISA in dividing ScN2a-c13 cells",400 nM
same,"Unbound (%), Cell-culture Media",[3],36.5 ± 3.30%
same,effect in prion-infected mice,[4],extended the incubation times
same,"Unbound (%), Mouse Plasma",[5],9.06 ± 2.31%
same,"Unbound (%), Human Plasma",[6],2.10 ± 1.11%
same,Toleration,"[7]; 25, 50, 100, and 150 mg/kg for 3 days in liquid rodent diet, FVB mice","All doses were tolerated, with no animals showing lethal toxicity"
same,animals dying,[7]; ≧150 mg/kg/day for 8 days,2/4
same,half-life at 1 μM,"[8]; Sprague-Dawley, rat, […], pH 7.4",> 60 min
same,"% remaining after a 60-min incubation, Rat",[8]; […],77%
same,half-life at 1 μM,[9]; mouse liver microsomes,30 min
same,Hepatic Extraction Ratio Mouse,[9]; mouse,0.8
same,"% remaining after a 60-min incubation, Mouse",[9]; mouse liver microsomes,29%
same,"% remaining after a 60-min incubation, Human",[10]; human liver microsomes,68%
same,half-life at 1 μM,[10]; human liver microsomes,> 60 min
same,dose with lethal toxicity,[11]; administered chronically in vivo for eight days,> 110 mg/kg/day
same,dose with lethal toxicity,[11]; administered in vivo,≥ 150 mg/kg/day
same,tolerated dose,[11]; at least eight days,up to 100 mg/kg/day
same,brain concentration as multiple of EC50,[11]; doses up to 100 mg/kg/day for at least eight days,> 10 ×EC50
same,Kp,[12]; brain and plasma,0.5
same,bioavailability,[12]; plasma,25 to 27%
same,concentration at 3 days,[13],~10 µM
"COc1ccc(Nc2nc(-c3ccc(OC)c(OC)c3)cs2)nc1 [IND44, [4-(3,4-Dimethoxy-phenyl)-thiazol-2-yl]-(5-methoxy-pyridin-2-yl)-amine]",solubility in media (in words),[14],lower solubility
same,solubility in FaSSIF (in words),fasted-state simulated intestinal fluid,lower solubility
same,solubility at pH 2.0 (in words),pH 2 (HCl) buffer,lower solubility
same,solubility at pH 7.4 (in words),pH 7.4 phosphate buffer,lower solubility
same,solubility,[15]; FaSSIF,< 1 µM
same,solubility,"[15]; cell culture media, plasma or biological fluid",3 µM
same,solubility,"[15]; pH 2 (HCl) buffer, pH 2, simulated gastric fluid",1 µM
same,solubility,"[15]; pH 7.4 (phosphate) buffer, pH 7.4, aqueous buffer",< 1 µM
same,"t1/2 in min, Rat",[8]; […],45 min
same,"% remaining after a 60-min incubation, Rat",[8]; […],39%
same,t1/2 Rat,[8]; rat microsomes,45 min
same,half-life at 1 μM,[9]; liver microsomes,29 min
same,half-life at 1 μM,[9]; mouse liver microsomes,29 min
same,"% remaining after a 60-min incubation, Mouse",[9]; mouse liver microsomes,24%
same,"% remaining after a 60-min incubation, Human",[10]; human liver microsomes,48%
same,half-life at 1 μM,[10]; human liver microsomes,58 min
same,half-life at 1 μM,[10]; liver microsomes,58 min
"O=C(O)c1cccc2c1NC(C(=O)O)C1CC=CC21 (stereo not shown) [IND-0001270, 3a, 4,5,9b-tetrahydro-3H cyclopenta[c]quinoline-4,6-dicarboxylic acid]",activity on PrP^Sc in nondividing cells (in words),[1],active
same,activity on PrP^C (in words),[16]; IMR32 cells,active
same,activity on PrP^C (in words),[17],active
same,antiprion activity (in words),[18]; dividing ScN2a-c13 cells,active
O=C(Cc1ccc(Br)cc1)NCc1ccccc1 [IND-0061769],EC50,"[16]; read-out: EC50, PrP^C, IMR32 cells",2050 nM
same,EC50,"[17]; read-out: EC50, PrP^C",1840 nM
same,% Inhibition: SPC (T98G),[19],MW: 304.2 % Inhibition: SPC (IMR32): 46 Calcein: 21 SPC (T98G): 63 Calcein: 38
same,% Inhibition: SPC (IMR32),[20],MW: 304.2 % Inhibition: SPC (IMR32): 46 Calcein: 21 SPC (T98G): 63 Calcein: 38
same,% Inhibition: Calcein (T98G),[21],38%
same,% Inhibition: Calcein (IMR32),[22],21%
CCN(CC)CCCC(C)Nc1c2ccc(Cl)cc2nc2ccc(OC)cc12 (stereo not shown) [quinacrine],"PrP^C levels, HTS of FDA-approved drugs",[16],lowered
same,"PrP^Sc levels, HTS of FDA-approved drugs","[18]; HTS of 1,700 FDA-approved drugs",lowered
same,effect in prion-infected mice,[4],ineffective
same,Clearance of PrP^Sc in dividing cells,[23],rapidly clears dividing cells of PrP^Sc
same,Clearance of PrP^Sc in nondividing prion-infected cells,[24],relatively ineffective

# — patent US20140329863A1 (priority 2011, published 2014)
